Patent US10004679B2, “Compositions of Amorphophallus konjac and methods for their use in skin care” (Vidya Herbs, Inc., priority 2014, dated 2018)

Tests used:
Type in all cases: biochemical
[1] = tested on: Mushroom tyrosinase; test: In vitro anti-tyrosinase activity (L-DOPA, dopachrome at 475 nm)
Procedure: Mushroom tyrosinase (Prod. No. T7755) and L-DOPA were purchased from Sigma Adrich. […] We also prepared positive controls of lmg/mL kojic acid solutions (with water), with enzyme. Twenty 20 μL of 0.85 mM L-DOPA solution as the substrate was added into every sample and blank. These assay mixtures were incubated at 25° C. for 10 min. The amount of dopachrome produced in the reaction mixture was measured at 475 nm.

[2] = target: Porcine pancreatic elastase (Sus scrofa, UniProt P00772); test: In vitro anti-elastase activity
Procedure: The assay employed was based on methods from the literature. This assay was performed in 0.2 mM Tris-HCL buffer (pH 8.0). Porcine pancreatic elastase (PE-E.C.3.4.21.36) was dissolved to make a 3.33 mg/mL stock solution in sterile water. The substrate N-succinyl-Ala-Ala-Ala-p-nitroanilide (AAAPVN) was dissolved in buffer at 1.6 mM. The test extracts were incubated with the enzyme for 15 minutes before adding substrate to begin the reaction. The final reaction mixture (250 μL total volume) contained buffer, 0.8 mM AAAPVN,1 mg/mL PE and 25 mg test extract. EGCG (1 mg/mL) was used as a positive control. Negative controls were performed using water. Absorbance values between 381 and 402 nm (following pre-screen scans) were measured immediately following addition of the substrate and then continuous for 20 minutes. FIG. 6

[3] = tested on: Collagenase from Clostridium histolyticum; test: In vitro anti-collagenase activity (FALGPA substrate)
Procedure: The assay employed was based on spectrophotometric methods reported in the literature. The assay was performed in 50 mM Tricine buffer (pH 7.5 with 400 mM NaCl and 10 mM CaCl2). Collagenase from Clostridium histolyticum (ChC-[…]) was dissolved in buffer for use at an initial concentration of 0.8 units/mL according to the supplier's activity data. The synthetic substrate N-[3-(2-furyl)acryloyl]-Leu-Gly-Pro-Ala (FALGPA) was dissolved in Tricine buffer to 2 mM. […] The final reaction mixture (150 μL total volume) contained Tricine buffer, 0.8 mM FALGPA, 0.1 units ChC and 20-100 μg test extracts. Negative controls were performed with water. Absorbance at 335 nm was measured immediately after adding substrate and then continuous for 20 minutes. EGCG, 250 μM (0.114 mg/mL) was used as a positive control. FIG. 9

Chain of Porcine pancreatic elastase (P00772 27-266): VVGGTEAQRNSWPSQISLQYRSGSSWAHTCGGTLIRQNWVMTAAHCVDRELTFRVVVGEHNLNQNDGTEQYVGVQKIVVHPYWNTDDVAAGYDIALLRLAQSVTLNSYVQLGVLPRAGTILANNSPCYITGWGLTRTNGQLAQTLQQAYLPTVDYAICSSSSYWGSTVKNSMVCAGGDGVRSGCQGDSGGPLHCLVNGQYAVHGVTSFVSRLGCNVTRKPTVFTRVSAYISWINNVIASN

% inhibition of tyrosinase activity ([1]; 20 μg/ml)	% inhibition of tyrosinase activity ([1]; 40 μg/ml)	% inhibition of tyrosinase activity ([1]; 60 μg/ml)	% inhibition of tyrosinase activity ([1]; 80 μg/ml)	% inhibition of tyrosinase activity ([1]; 100 μg/ml)	Compound	% inhibition of Elastase activity ([2]; 20 μg/ml)	% inhibition of Elastase activity ([2]; 40 μg/ml)	% inhibition of Elastase activity ([2]; 60 μg/ml)	% inhibition of Elastase activity ([2]; 80 μg/ml)	% inhibition of Elastase activity ([2]; 100 μg/ml)	% inhibition of Collagenase activity ([3]; 20 μg/ml)	% inhibition of Collagenase activity ([3]; 40 μg/ml)	% inhibition of Collagenase activity ([3]; 60 μg/ml)	% inhibition of Collagenase activity ([3]; 80 μg/ml)	% inhibition of Collagenase activity ([3]; 100 μg/ml)
64.46%	77.66%	88.32%	91.37%	93.90%	O=c1cc(CO)occ1O [Kojic acid, kojic acid]										
					O=C(O[C@@H]1Cc2c(O)cc(O)cc2O[C@@H]1c1cc(O)c(O)c(O)c1)c1cc(O)c(O)c(O)c1 [EGCG, epigallocatechin gallate]	43.98%	54.36%	53.32%	60.37%	62.45%	8.30%	16.93%	25.83%	32.70%	41.52%
